Results taken from patent US12419854B2, “Methods for treating or preventing gout or hyperuricemia” (Arthrosi Therapeutics, Inc., priority 2018, dated 2025).
Read-outs that look alike come from different tables or passages of the source.

Legend:
[1] = target: T1, human URAT1 uptake transporter (Homo sapiens, UniProt Q96S37); assay: Inhibition of URAT1-mediated uric acid uptake in MDCKII cells stably expressing human URAT1; assay type: cell-based
T1 construct: expressed in transfected cells
T1 sequence (Q96S37 1-553): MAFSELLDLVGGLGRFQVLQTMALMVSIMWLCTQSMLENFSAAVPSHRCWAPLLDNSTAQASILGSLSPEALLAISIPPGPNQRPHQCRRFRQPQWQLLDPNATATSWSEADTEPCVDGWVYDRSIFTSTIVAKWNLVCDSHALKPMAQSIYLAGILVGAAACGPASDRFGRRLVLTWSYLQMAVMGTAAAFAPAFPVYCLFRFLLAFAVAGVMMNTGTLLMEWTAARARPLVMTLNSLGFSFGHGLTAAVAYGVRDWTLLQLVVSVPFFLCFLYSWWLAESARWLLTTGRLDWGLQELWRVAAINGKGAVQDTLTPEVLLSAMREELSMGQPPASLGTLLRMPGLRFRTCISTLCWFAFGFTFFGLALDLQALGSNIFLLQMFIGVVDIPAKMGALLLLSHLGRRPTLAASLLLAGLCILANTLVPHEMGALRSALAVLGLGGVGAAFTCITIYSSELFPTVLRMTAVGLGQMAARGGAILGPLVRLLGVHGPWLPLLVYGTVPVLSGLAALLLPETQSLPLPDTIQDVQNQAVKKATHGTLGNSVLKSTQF
Description: Uptake experiments were performed using MDCKII cells stably expressing the human URAT1 uptake transporter. Cells were cultured at 37+1° C. in an atmosphere of 95:5 air:CO2 and were plated onto standard 96-well tissue culture plates at the cell number described in Table 1.
Radiolabeled probe substrate transport was determined by measuring an aliquot (35 μL) from each well for liquid scintillation counting.

Cynomolgus Monkeys = assay: 4-week oral toxicity study in cynomolgus monkeys; assay type: in vivo
Source text: (§1) On Day 29, surviving TS animals (all animals in study) were euthanized and subjected to a full gross necropsy, which included a macroscopic examination of the external surface of the body, all orifices, cranial cavity, external surface of the brain, the thoracic, abdominal and pelvic cavities and their viscera, cervical areas, carcass and genitalia. Organs were weighed as soon as possible from all main study animals at the scheduled necropsies. Tissues from animals at the terminal sacrifice, from animals found dead or moribund-sacrificed, and gross lesions from all animals, were embedded in paraffin, sectioned, stained with hematoxylin and eosin and examined microscopically by a board certified veterinary pathologist.

[2] = In vitro metabolism in human liver microsomes (HPLC-MS profiling); assay type: in vitro ADME; settings: for % MS response, Parent: human liver microsomes 0.5 mg/mL, NADPH, 60 minutes, 37° C.
Description: After pre-warming the mixture at 37° C. for 5 minutes, the reaction was initiated by the addition of 1 mM of NADPH and incubated for 60 minutes at 37° C. in a shaking water bath. The reaction was terminated by the addition of 0.5 mL ice-cold acetonitrile. Time 0 incubation was also performed by adding acetonitrile before the addition of microsomes to the incubation mixture as a reference sample for each species. Following vortex and centrifugation at 15,000 g for 3 minutes at room temperature, resulting supernatant was concentrated under nitrogen flow at 33° C., until approximately 0.5 mL of sample remained. The extract was then transferred to a 1.5-mL centrifuge vial for centrifugation at 15,000 g for 3 minutes. Finally, aliquots of the supernatant were transferred to HPLC vials for HPLC-MS analyses.
MS Analysis: Mass spectral analyses were performed on an Agilent single quadruple mass spectrometer equipped with an Agilent 1100 HPLC system. The mass spectrometer was fitted with an electrospray ionization (ESI) source and operated in a negative scan mode between 400 and 500 amu:
Metabolic profiling of benzbromarone was conducted using a similar method as described above.

serum uric acid (sUA) [3] = assay: Phase 1 multiple ascending dose study, pharmacodynamics (serum uric acid); assay type: in vivo, human; settings: 25, 50 or 75 mg once daily oral capsules, fasted, 10 days; in words
Source text: An additional 6 subjects received placebo.
Steady-state sUA lowering effect was achieved after approximately 5 days.

Sprague-Dawley Rats = assay: 4-week oral toxicity study in Sprague-Dawley rats; assay type: in vivo; settings: rat
Source text: as §1, with “Tissues from Groups 1 and 5 animals at” for “Tissues from animals at”

serum uric acid (sUA) [4] = assay: Phase 1 single dose study, pharmacodynamics (serum uric acid); assay type: in vivo, human; settings: for Percent change in serum uric acid, mean, time-matched (Day-1) baseline: 0 h
Description: (§2) The dose groups included Cohort 1 (15 mg or placebo, fasted, oral suspension), Cohort 2 (50 mg or placebo, fasted, suspension), Cohort 3 (100 mg or placebo, fasted, oral suspension), Cohort 4 (150 mg or placebo, fasted, oral suspension), Cohort 6 (50 mg or placebo, fed, oral suspension), and Cohort 7 (50 mg or placebo, fasted, oral capsule). […] An additional 8 subjects received placebo.
Decrease in sUA appeared to reach a plateau at 100 mg or lower.

[5] = Phase 1 single dose study, plasma pharmacokinetics; assay type: in vivo, human; settings: for power model intercept (a) of exposure versus dose: male, human, plasma, oral
Description: as §2
The results are consistent with observation in animal testing and higher exposure of S-enantiomer was attributed to the conversion of the R-enantiomer in vivo.

For `[2H]c1c([2H])c([2H])c2c(C(=O)c3cc(Br)c(O)c(Br)c3)c(C(C)O)oc2c1[2H]` (racemic) [Compound 1, (3,5-dibromo-4-hydroxyphenyl)(2-(1-hydroxyethyl)benzofuran-3-yl-4,5,6,7-d4)methanone], the inhibition at 10 µM ([1]; MDCK-II, at 10 μM, read-out: inhibition of URAT1 mediated uric acid accumulation) was 100%, the “in vitro URAT1 potency versus benzbromarone” value ([1]; comparison in words) was “better in vitro URAT1 potency than benzbromarone” and the “human equivalent of NOAEL” value (Cynomolgus Monkeys; cynomolgus monkey, in vivo) was 600 mg. For the same compound, the “effect on food consumption of body weight” value (Cynomolgus Monkeys; monkey, 10-150 mg/kg/day, 28 days) was “no effect”, the liver weight (Cynomolgus Monkeys; monkey, male, 150 mg/kg/day, no statistical difference) was “trended higher” and the “% MS response, Parent” value [2] was 82.5%. The “formation of 6-OH benzbromarone and 5,6-di-OH benzbromarone metabolites” value ([2]; in words) was “not formed”, the “mean sUA levels versus placebo group” value (serum uric acid (sUA) [3]) was “dose-dependent decreases” and the “effect on food consumption of body weight” value (Sprague-Dawley Rats; 2-50 mg/kg/day oral gavage, 28 days) was “no effect”. For the same compound, the kidney weight (Sprague-Dawley Rats; female, 50 mg/kg/day, 28 days) was “kidney weight increase”, the liver weight (Sprague-Dawley Rats; female, ≥15 mg/kg/day, 28 days) was “Liver weight increase” and the “human equivalent of NOAEL” value (Sprague-Dawley Rats; in vivo) was 500 mg. For the same compound, the liver weight (Sprague-Dawley Rats; male, 50 mg/kg/day, 28 days) was “Liver weight increase”, the “sUA reduction with versus without food” value (serum uric acid (sUA) [4]; 50 mg single dose, throughout 120 hours post-dose, in words) was “no difference” and the “Percent change in serum uric acid, mean, time-matched (Day-1) baseline” value (“Percent change in serum uric acid, mean” for short) (serum uric acid (sUA) [4]; single oral dose 15 mg, fasted) was −3.4%. The “Percent change in serum uric acid, mean” value (serum uric acid (sUA) [4]; single oral dose 50 mg, fasted (suspension)) was −8.9%, the “Serum uric acid, mean” value (serum uric acid (sUA) [4]; single oral dose 50 mg, fasted (suspension), −12 h (pre-dose)) was 5.9 mg/dL and the “Serum uric acid, mean” value (serum uric acid (sUA) [4]; single oral dose 50 mg, fasted (suspension), −24 h (pre-dose)) was 6.7 mg/dL. For the same compound, the “Serum uric acid, mean” value (serum uric acid (sUA) [4]; single oral dose 50 mg, fasted, Capsule, −12 h (pre-dose)) was 5.5 mg/dL, the “Serum uric acid, mean” value (serum uric acid (sUA) [4]; single oral dose 50 mg, fasted, Capsule, −18 h (pre-dose)) was 5.5 mg/dL and the “Percent change in serum uric acid, mean” value (serum uric acid (sUA) [4]; single oral dose 50 mg, fed) was −1.0%. The “Serum uric acid, mean” value (serum uric acid (sUA) [4]; single oral dose 50 mg, fed, −12 h (pre-dose)) was 6.2 mg/dL, the “Serum uric acid, mean” value (serum uric acid (sUA) [4]; single oral dose 50 mg, fed, −24 h (pre-dose)) was 6.5 mg/dL and the “Percent change in serum uric acid, mean” value (serum uric acid (sUA) [4]; single oral dose 100 mg, fasted) was −6.6%. For the same compound, the “Serum uric acid, mean” value (serum uric acid (sUA) [4]; single oral dose 150 mg, fasted, −18 h (pre-dose)) was 5.7 mg/dL, the “mean sUA levels versus placebo group” value (serum uric acid (sUA) [4]; single oral dose 15, 50, 100, and 150 mg fasted, at 50 mg or higher, in words) was “dose-dependent decreases” and the “food effect on Cmax in the fed state” value ([5]; 50 mg, fed versus fasted) was roughly 33%. For the same compound, the “dose proportionality of AUC (AUCinf)” value ([5]; 15 to 150 mg, fasted, in words) was “dose proportional increases”, the “dose proportionality of Cmax” value ([5]; 15 to 150 mg, fasted, in words) was “slightly less than dose proportionality increase” and the power model intercept (a) of exposure versus dose ([5]; 15 to 150 mg, fasted, AUCinf (μg · h/mL) = a × dose^b, read-out: power model intercept, AUCinf) was 944 ng·h/mL. For the same compound, the power model intercept (a) of exposure versus dose ([5]; 15 to 150 mg, fasted, Cmax (μg/mL) = a × dose^b, read-out: power model intercept, Cmax) was 96.6 ng/mL, the “AUCinf (Total)” value ([5]; single oral dose 50 mg, fed, suspension (C6)) was 51200 ng·h/mL and the “volume of distribution, range over dose groups” value ([5]; single oral dose 15-150 mg) was 14 to 18 L.
In the case of `CCc1oc2ccccc2c1C(=O)c1cc(Br)c(O)c(Br)c1` [Benzbromarone, reference compound], the “% MS response, Parent” value [2] is reported as 13.1%.
